Our source for the EC50 values is US20200131129A1, “FARNESOID X RECEPTOR AGONISTS AND USES THEREOF” (Metacrine, Inc., priority 2017, published 2020).

In general, EC50 refers to the concentration at which the effect is half-maximal.

A value given as a limit tells only on which side of the number the result lay.

The target of the experiment is T1, hFXR (Homo sapiens, UniProt Q96RI1).
T1 construct: expressed in transfected cells; host or cells: CV-1 cells
T1 sequence (Q96RI1 1-486): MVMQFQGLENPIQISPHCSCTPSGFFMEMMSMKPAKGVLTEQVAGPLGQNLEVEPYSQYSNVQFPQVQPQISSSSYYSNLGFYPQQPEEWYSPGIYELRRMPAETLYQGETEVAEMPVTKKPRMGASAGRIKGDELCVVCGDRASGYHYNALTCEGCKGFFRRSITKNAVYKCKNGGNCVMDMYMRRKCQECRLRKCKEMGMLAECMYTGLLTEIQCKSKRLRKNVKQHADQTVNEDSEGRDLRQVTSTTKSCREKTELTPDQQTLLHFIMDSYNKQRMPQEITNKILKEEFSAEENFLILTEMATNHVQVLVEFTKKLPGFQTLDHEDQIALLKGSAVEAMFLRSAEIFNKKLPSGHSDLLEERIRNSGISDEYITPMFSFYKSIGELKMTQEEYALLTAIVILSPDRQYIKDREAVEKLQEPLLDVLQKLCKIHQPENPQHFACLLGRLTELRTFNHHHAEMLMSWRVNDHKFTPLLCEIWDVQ
T1 sequence (P19793 1-462 partner): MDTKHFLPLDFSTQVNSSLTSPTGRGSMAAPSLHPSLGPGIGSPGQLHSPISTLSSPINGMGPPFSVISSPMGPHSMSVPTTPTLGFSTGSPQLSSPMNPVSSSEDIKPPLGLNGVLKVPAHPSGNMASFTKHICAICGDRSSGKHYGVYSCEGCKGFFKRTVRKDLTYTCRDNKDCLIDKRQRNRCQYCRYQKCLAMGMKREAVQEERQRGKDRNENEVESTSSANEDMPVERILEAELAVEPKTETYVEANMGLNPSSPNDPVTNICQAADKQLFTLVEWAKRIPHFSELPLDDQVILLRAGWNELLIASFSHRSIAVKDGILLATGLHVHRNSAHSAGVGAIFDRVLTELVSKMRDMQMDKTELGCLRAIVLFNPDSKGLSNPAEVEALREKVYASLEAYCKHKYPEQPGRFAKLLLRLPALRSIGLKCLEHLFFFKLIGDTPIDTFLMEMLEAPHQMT
Description: In Vitro FXR Assay (TK): hFXR/hRXR TK-ECRE-luc reporter in transfected CV-1 cells. It counts as cell-based. Particulars: CV-1 cells transfected with hFXR, hRXR, 18 hrs incubation, luminescence, maximum efficacy <25% of Fexarmine control also classified as ‘+’. As to the method:
Example B-1: In Vitro FXR Assay (TK)
CV-1 cells were seeded at a density of 2,000,000 cells in a T175 flask with DMEM+10% charcoal double-stripped FBS and incubated at 37° C. in 5% CO2 for 18 h (O/N).
After 18 h of incubation, the medium in the T175 flask was changed with fresh DMEM+10% charcoal super-stripped serum. In a polypropylene tube, 2500 μL OptiMEM (Life Technologies, Cat #31985-062) was combined with expression plasmids for hFXR, hRXR, TK-ECRE-luc and pCMX-YFP. The tube was then briefly vortexed and incubated at room temperature for 5 minutes. Transfection reagent (X-tremeGENE HP from Roche, Cat #06 366 236 001) was added to the OptiMEM/plasmid mixture vortexed and incubated at room temperature for 20 minutes. Following incubation, the transfection reagent/DNA mixture complex was added to cells in the T175 flask and the cells were incubated at 37° C. in 5% CO2 for 18 h (0/N).
Compounds were serially diluted in DMSO and added to transfected CV-1 cells. The cells were then incubated for 18 hrs. The next day cells were lysed and examined for luminescence.
With `COc1ccc([C@H]2CC[C@H](CN(c3cccc(-c4ccsn4)c3)C(=O)[C@H]3CC[C@H](O)CC3)CC2)cc1C` [Compound 2.07, trans-4-Hydroxy-N-(3-(isothiazol-3-yl)phenyl)-N-((trans-4-(4-methoxy-3-methylphenyl)cyclohexyl)methyl)cyclohexanecarboxamide], the half-maximal effective concentration (EC50) lay within 500 to 1000 nM.
With `COc1ccc([C@H]2CC[C@H](CN(c3cccc(-c4nc(C)ns4)c3)C(=O)[C@H]3CC[C@H](O)CC3)CC2)cc1C` [Compound 2.08, trans-4-Hydroxy-N-((trans-4-(4-methoxy-3-methylphenyl)cyclohexyl)methyl)-N-(3-(3-methyl-1,2,4-thiadiazol-5-yl)phenyl)cyclohexanecarboxamide] the figure was 500 to 1000 nM; with `COc1ccc([C@H]2CC[C@H](CN(c3cccc(-c4cnn(C)n4)c3)C(=O)[C@H]3CC[C@H](O)CC3)CC2)cc1C` [Compound 2.09, trans-4-Hydroxy-N-((trans-4-(4-methoxy-3-methylphenyl)cyclohexyl)methyl)-N-(3-(2-methyl-2H-1,2,3-triazol-4-yl)phenyl)cyclohexanecarboxamide], at least 1000 nM; with `COc1ccc([C@H]2CC[C@H](CN(c3cccc(-c4ncn(C)n4)c3)C(=O)[C@H]3CC[C@H](O)CC3)CC2)cc1C` [Compound 2.10, trans-4-Hydroxy-N-((trans-4-(4-methoxy-3-methylphenyl)cyclohexyl)methyl)-N-(3-(1-methyl-1H-1,2,4-triazol-3-yl)phenyl)cyclohexanecarboxamide], at least 1000 nM.
With `COc1ccc([C@H]2CC[C@H](CN(c3cccc(-c4cn(C)cn4)c3)C(=O)[C@H]3CC[C@H](O)CC3)CC2)cc1C` [Compound 2.11, trans-4-Hydroxy-N-((trans-4-(4-methoxy-3-methylphenyl)cyclohexyl)methyl)-i-(3-(1-methyl-1H-imidazol-4-yl)phenyl)cyclohexanecarboxamide] the figure was at least 1000 nM; with `COc1ccc([C@H]2CC[C@H](CN(c3cccc(-c4nsc(C5CC5)n4)c3)C(=O)[C@H]3CC[C@H](O)CC3)CC2)cc1C` [Compound 2.12, trans-N-(3-(5-Cyclopropyl-1,2,4-thiadiazol-3-yl)phenyl)-4-hydroxy-N-((trans-4-(4-methoxy-3-methylphenyl)cyclohexyl)methyl)cyclohexanecarboxamide], 500 to 1000 nM.
The same measure for `COc1ccc([C@H]2CC[C@H](CN(c3cccc(-c4cnc(N(C)C)cn4)c3)C(=O)[C@H]3CC[C@H](O)CC3)CC2)cc1C` [Compound 2]: at most 500 nM; for `COc1ccc([C@H]2CC[C@H](CN(c3cccc(-c4cc(C)no4)c3)C(=O)[C@H]3CC[C@H](O)CC3)CC2)cc1C` [Compound 3, trans-4-Hydroxy-N-((trans-4-(4-methoxy-3-methylphenyl)cyclohexyl)methyl)-N-(3-(3-methylisoxazol-5-yl)phenyl)cyclohexanecarboxamide]: at most 500 nM; for `COc1ccc([C@H]2CC[C@H](CN(c3cccc(-c4ncco4)c3)C(=O)[C@H]3CC[C@H](O)CC3)CC2)cc1C` [Compound 3.01, trans-4-Hydroxy-N-((trans-4-(4-methoxy-3-methylphenyl)cyclohexyl)methyl)-N-(3-(oxazol-2-yl)phenyl)cyclohexanecarboxamide]: at least 1000 nM.
The compound `COc1ccc([C@H]2CC[C@H](CN(c3cccc(-n4ccc(C)c4)c3)C(=O)[C@H]3CC[C@H](O)CC3)CC2)cc1C` [Compound 4] showed a half-maximal effective concentration (EC50) of at most 500 nM.
The same measure for `COc1ccc([C@H]2CC[C@H](CN(c3cccc(-c4nnn(C)n4)c3)C(=O)[C@H]3CC[C@H](O)CC3)CC2)cc1C` [Compound 5, trans-4-Hydroxy-N-((trans-4-(4-methoxy-3-methylphenyl)cyclohexyl)methyl)-N-(3-(2-methyl-2H-tetrazol-5-yl)phenyl)cyclohexanecarboxamide]: at least 1000 nM; for `COc1ccc([C@H]2CC[C@H](CN(c3cccc(-c4nnc(C)o4)c3)C(=O)[C@H]3CC[C@H](O)CC3)CC2)cc1C` [Compound 6, trans-4-Hydroxy-N-((trans-4-(4-methoxy-3-methylphenyl)cyclohexyl)methyl)-N-(3-(5-methyl-1,3,4-oxadiazol-2-yl)phenyl)cyclohexanecarboxamide]: at least 1000 nM; for `COc1ccc([C@H]2CC[C@H](CN(c3cccc(-n4cnc(C)n4)c3)C(=O)[C@H]3CC[C@H](O)CC3)CC2)cc1C` [Compound 7, trans-4-Hydroxy-N-((trans-4-(4-methoxy-3-methylphenyl)cyclohexyl)methyl)-N-(3-(3-methyl-1-1,2,4-triazol-1-yl)phenyl)cyclohexanecarboxamide]: 500 to 1000 nM.
With `COc1ccc([C@H]2CC[C@H](CN(c3cccc(-n4cnc(C5CC5)n4)c3)C(=O)[C@H]3CC[C@H](O)CC3)CC2)cc1C` [Compound 7.01, trans-N-(3-(3-Cyclopropyl-1H-1,2,4-triazol-1-yl)phenyl)-4-hydroxy-N-((trans-4-(4-methoxy-3-methylphenyl)cyclohexyl)methyl)cyclohexanecarboxamide] the figure was at most 500 nM; with `COc1ccc([C@H]2CC[C@H](CN(c3cccc(-c4cnc(C)o4)c3)C(=O)[C@H]3CC[C@H](O)CC3)CC2)cc1C` [Compound 8, trans-4-Hydroxy-N-((trans-4-(4-methoxy-3-methylphenyl)cyclohexyl)methyl)-N-(3-(2-methyloxazol-5-yl)phenyl)cyclohexanecarboxamide], at most 500 nM; with `COc1ccc([C@H]2CC[C@H](CN(c3cccc(-c4cc(C5CC5)ns4)c3)C(=O)[C@H]3CC[C@H](O)CC3)CC2)cc1C` [Compound 9, trans-N-(3-(3-Cyclopropylisothiazol-5-yl)phenyl)-4-hydroxy-N-((trans-4-(4-methoxy-3-methylphenyl)cyclohexyl)methyl)cyclohexanecarboxamide], at most 500 nM.
With `COc1ccc([C@H]2CC[C@H](CN(c3cccc(-n4cnc(C)c4)c3)C(=O)[C@H]3CC[C@H](O)CC3)CC2)cc1C` [Compound 9.01, trans-4-Hydroxy-N-((trans-4-(4-methoxy-3-methylphenyl)cyclohexyl)methyl)-N-(3-(4-methyl-1H-imidazol-1-yl)phenyl)cyclohexanecarboxamide] the figure was 500 to 1000 nM; with `COc1ccc([C@H]2CC[C@H](CN(c3cccc(-c4nc(C)no4)c3)C(=O)[C@H]3CC[C@H](O)CC3)CC2)cc1C` [Compound 9.02, trans-4-Hydroxy-N-((trans-4-(4-methoxy-3-methylphenyl)cyclohexyl)methyl)-N-(3-(3-methyl-1,2,4-oxadiazol-5-yl)phenyl)cyclohexanecarboxamide], 500 to 1000 nM; with `COc1ccc([C@H]2CC[C@H](CN(c3cccc(-c4nc(C)co4)c3)C(=O)[C@H]3CC[C@H](O)CC3)CC2)cc1C` [Compound 9.03, trans-4-Hydroxy-N-((trans-4-(4-methoxy-3-methylphenyl)cyclohexyl)methyl)-N-(3-(4-methyloxazol-2-yl)phenyl)cyclohexanecarboxamide], at least 1000 nM.
In turn, `COc1ccc([C@H]2CC[C@H](CN(c3cccc(-c4coc(C)n4)c3)C(=O)[C@H]3CC[C@H](O)CC3)CC2)cc1C` [Compound 9.04, trans-4-Hydroxy-N-((trans-4-(4-methoxy-3-methylphenyl)cyclohexyl)methyl)-N-(3-(2-methyloxazol-4-yl)phenyl)cyclohexanecarboxamide] showed a concentration for a half-maximal effect (EC50) of at most 500 nM.
With `COc1ccc([C@H]2CC[C@H](CN(c3cccc(-n4nnc(C)n4)c3)C(=O)[C@H]3CC[C@H](O)CC3)CC2)cc1C` [Compound 9.05, trans-4-Hydroxy-N-((trans-4-(4-methoxy-3-methylphenyl)cyclohexyl)methyl)-N-(3-(5-methyl-2H-tetrazol-2-yl)phenyl)cyclohexanecarboxamide] the figure was 500 to 1000 nM.
